The values that follow come from PMC6222820, “Synthesis of New Triarylpyrazole Derivatives Possessing Terminal Sulfonamide Moiety and Their Inhibitory Effects on PGE2 and Nitric Oxide Productions in Lipopolysaccharide-Induced RAW 264.7 Macrophages” (Molecules : A Journal of Synthetic Chemistry and Natural …, 2018).

Data set [1] deals with LPS-induced RAW 264.7 macrophages. Put plainly: Nitric oxide (NO) production inhibition in LPS-induced RAW 264.7 macrophages (nitrite determination). In kind it is cell-based. As to conditions: Mus musculus; for inhibition at 1 µM: RAW264.7, 1 µM; for inhibition at 1 µM / inhibition at 5 µM / inhibition at 10 µM: LPS-induced RAW 264.7 macrophages; for inhibition at 5 µM: RAW264.7, 5 µM; for inhibition at 10 µM: RAW264.7, 10 µM; for IC50: RAW264.7, nitric oxide production, means ± SD of three independent experiments, read-out: NO (IC50). The protocol:
The ability of a certain molecule to inhibit the production of inflammatory mediator(s) is one of successful approach to treatment both chronic and acute inflammation.
(§1) Cell culture and sample treatment were performed as reported in the literature. The 3-(4,5-dimethylthiazol-2-yl)-2,5-diphenyltetrazolium bromide (MTT) assay for cell viability followed the procedure previously described in the literature. Nitrite determination was carried as described in the literature, and the PGE2 assay was carried as previously described.

Data set [2] is described as follows: MTT assay for cell viability / cytotoxicity. In kind it is cell-based. As to conditions: mouse, RAW 264.7 macrophages, means ± SD of three independent experiments. The protocol:
In addition to NO inhibition, the cytotoxic activity of compounds 1a–i, 2a–i, 3a–h, and 4a–h in RAW 264.7 macrophages were measured using the 3-(4,5-dimethylthiazol-2-yl)-2,5-diphenyltetrazolium bromide (MTT) assay to check whether the effects on the production of NO was caused by nonspecific cytotoxicity.
as §1

With `COc1cccc(-c2nn(-c3ccccc3)cc2-c2ccnc(NCCNS(=O)(=O)c3ccccc3)c2)c1` [Compound 1a, N-(2-((4-(3-(3-Methoxyphenyl)-1-phenyl-1H-pyrazol-4-yl)pyridin-2-yl)amino)ethyl)benzenesulfonamide], the melting point (as a rule, the temperature of the solid-liquid transition) was 104 to 106 °C. In data set [1], at 1 µM the inhibition was 17.35 ± 0.09%; the inhibition (commonly the change of the read-out against control, counted positive when it falls) at 5 µM came out at 35.4 ± 1.14%; the inhibition at 10 µM stood at 52.9 ± 3.12%; the IC50 (as a rule, the concentration needed to halve the response being measured) is 9.17 ± 0.52 µM. For the same compound, in data set [2], the midpoint of inhibition, the IC50, lay at 245.8 ± 1.91 µM.

`COc1cccc(-c2nn(-c3ccccc3)cc2-c2ccnc(NCCNS(=O)(=O)c3ccc(Cl)cc3)c2)c1` [Compound 1c, 4-Chloro-N-(2-((4-(3-(3-methoxyphenyl)-1-phenyl-1H-pyrazol-4-yl)pyridin-2-yl)amino)ethyl)benzenesulfonamide] showed a melting point of 132 to 134 °C. Further, in data set [1], the inhibition at 1 µM is 13.27 ± 0.08%, the inhibition at 5 µM turned out to be 24.76 ± 0.17%, the inhibition at 10 µM was 49.9 ± 1.25% and the IC50 was 10.1 ± 0.63 µM. For the same compound, the IC50 in data set [2] was 219.39 ± 0.14 µM.

The compound `COc1ccc(S(=O)(=O)NCCNc2cc(-c3cn(-c4ccccc4)nc3-c3cccc(OC)c3)ccn2)cc1` [Compound 1e, 4-Methoxy-N-(2-((4-(3-(3-methoxyphenyl)-1-phenyl-1H-pyrazol-4-yl)pyridin-2-yl)amino)ethyl)benzenesulfonamide] registered a melting point of 144 to 146 °C. Further, in data set [1], the inhibition at 1 µM worked out at 13.52 ± 0.11%, the inhibition at 5 µM stood at 16.1 ± 0.09%, the inhibition at 10 µM was 41.5 ± 0.99% and the IC50 amounted to 13.4 ± 0.72 µM. Besides, the IC50 in data set [2] came out at 285 ± 4.18 µM.

In turn, `COc1cccc(-c2nn(-c3ccccc3)cc2-c2ccnc(NCCNS(=O)(=O)c3cccc(F)c3)c2)c1` [Compound 1h, 3-Fluoro-N-(2-((4-(3-(3-methoxyphenyl)-1-phenyl-1H-pyrazol-4-yl)pyridin-2-yl)amino)ethyl)benzenesulfonamide] had a melting point of 118 to 120 °C. In data set [1], the inhibition at 1 µM is 11.12 ± 0.02%, the inhibition at 5 µM was determined as 26.2 ± 0.99%, testing at 10 µM gave an inhibition of 41.2 ± 2.15% and the IC50 was determined as 12.6 ± 0.29 µM. Moreover, in data set [2], the IC50 was 244.2 ± 2.23 µM.

`COc1cccc(-c2nn(-c3ccccc3)cc2-c2ccnc(NCCCNS(=O)(=O)c3ccc(Br)cc3)c2)c1` [Compound 2b, 4-Bromo-N-(3-((4-(3-(3-methoxyphenyl)-1-phenyl-1H-pyrazol-4-yl)pyridin-2-yl)amino)propyl)benzenesulfonamide] showed a melting point of 117 to 119 °C. Besides, in data set [1], the inhibition at 1 µM was 0.01 ± 0.03%, testing at 5 µM gave an inhibition of 28.1 ± 0.66%, the inhibition at 10 µM was 52.4 ± 1.62% and the IC50 stood at 9.5 ± 0.34 µM. Besides, the IC50 in data set [2] was determined as 384.7 ± 1.29 µM.

`COc1cccc(-c2nn(-c3ccccc3)cc2-c2ccnc(NCCCNS(=O)(=O)c3ccc(F)cc3)c2)c1` [Compound 2d, 4-Fluoro-N-(3-((4-(3-(3-methoxyphenyl)-1-phenyl-1H-pyrazol-4-yl)pyridin-2-yl)amino)propyl)benzenesulfonamide] gave a melting point of 92 to 94 °C. Further, in data set [1], testing at 1 µM gave an inhibition of 7.81 ± 0.03%, the inhibition at 5 µM worked out at 23 ± 0.89%, the inhibition at 10 µM was determined as 55 ± 4.01% and the IC50 amounted to 12.4 ± 0.4 µM. This compound also gave an IC50 in data set [2] of 260.3 ± 2.24 µM.

On to `COc1ccc(S(=O)(=O)NCCCNc2cc(-c3cn(-c4ccccc4)nc3-c3cccc(OC)c3)ccn2)cc1` [Compound 2e, 4-Methoxy-N-(3-((4-(3-(3-methoxyphenyl)-1-phenyl-1H-pyrazol-4-yl)pyridin-2-yl)amino)propyl)benzenesulfonamide], for which the melting point is 124 to 126 °C. In data set [1], at 1 µM the inhibition was 2.02 ± 0.01%, at 5 µM the inhibition was 23.9 ± 1.12%, the inhibition at 10 µM is 50.2 ± 1.88% and the IC50 amounted to 9.96 ± 0.18 µM. For the same compound, in data set [2], the IC50 was > 400 µM.

`COc1cccc(-c2nn(-c3ccccc3)cc2-c2ccnc(NCCCNS(=O)(=O)c3ccc(C)cc3)c2)c1` [Compound 2f, N-(3-((4-(3-(3-Methoxyphenyl)-1-phenyl-1H-pyrazol-4-yl)pyridin-2-yl)amino)propyl)-4-methylbenzenesulfonamide] gave a melting point of 94 to 96 °C. Moreover, in data set [1], testing at 1 µM gave an inhibition of 4.36 ± 0.04%, the inhibition at 5 µM was found to be 19.8 ± 0.96%, the inhibition at 10 µM stood at 46.3 ± 3.21% and the IC50 stood at 9.16 ± 0.27 µM. In data set [2], this compound came in with an IC50 of 323 ± 3.35 µM.

In turn, `O=S(=O)(NCCNc1cc(-c2cn(-c3ccccc3)nc2-c2cccc(O)c2)ccn1)c1ccccc1` [Compound 3a, N-(2-((4-(3-(3-Hydroxyphenyl)-1-phenyl-1H-pyrazol-4-yl)pyridin-2-yl)amino)ethyl)benzenesulfonamide] yielded a melting point of 100 to 102 °C. For the same compound, in data set [1], at 1 µM the inhibition was 4.78 ± 0.03%, testing at 5 µM gave an inhibition of 21.5 ± 0.37%, testing at 10 µM gave an inhibition of 49 ± 1.1% and the IC50 turned out to be 10.3 ± 0.23 µM. For the same compound, the IC50 in data set [2] is 29.8 ± 1.91 µM.

On to `O=S(=O)(NCCNc1cc(-c2cn(-c3ccccc3)nc2-c2cccc(O)c2)ccn1)c1ccc(Br)cc1` [Compound 3b, 4-Bromo-N-(2-((4-(3-(3-hydroxyphenyl)-1-phenyl-1H-pyrazol-4-yl)pyridin-2-yl)amino)ethyl)benzenesulfonamide], for which the melting point was in the range of 178 to 180 °C. Besides, in data set [1], the inhibition at 1 µM stood at 15.8 ± 0.16%, testing at 5 µM gave an inhibition of 24.4 ± 0.52%, the inhibition at 10 µM came out at 48.7 ± 1.74% and the IC50 came out at 10.6 ± 0.51 µM. In data set [2], this compound displayed an IC50 of 24.3 ± 0.41 µM.

`O=S(=O)(NCCNc1cc(-c2cn(-c3ccccc3)nc2-c2cccc(O)c2)ccn1)c1ccc(Cl)cc1` [Compound 3c, 4-Chloro-N-(2-((4-(3-(3-hydroxyphenyl)-1-phenyl-1H-pyrazol-4-yl)pyridin-2-yl)amino)ethyl)benzenesulfonamide] had a melting point of 100 to 102 °C. In data set [1], the inhibition at 1 µM worked out at 6.34 ± 0.06%, the inhibition at 5 µM came out at 11.7 ± 0.71%, the inhibition at 10 µM was found to be 33.8 ± 0.89% and the IC50 came out at 15.2 ± 0.17 µM. In data set [2], this compound had an IC50 of 22.7 ± 0.3 µM.

Regarding `O=S(=O)(NCCNc1cc(-c2cn(-c3ccccc3)nc2-c2cccc(O)c2)ccn1)c1ccc(F)cc1` [Compound 3d, 4-Fluoro-N-(2-((4-(3-(3-hydroxyphenyl)-1-phenyl-1H-pyrazol-4-yl)pyridin-2-yl)amino)ethyl)benzenesulfonamide], the melting point lay within 106 to 108 °C. In data set [1], the inhibition at 1 µM was determined as 10.58 ± 0.09%, the inhibition at 5 µM came out at 18.3 ± 0.26%, the inhibition at 10 µM is 48.2 ± 0.74% and the IC50 came out at 10.7 ± 0.52 µM. The IC50 in data set [2] is 26.6 ± 0.47 µM.

`Cc1ccc(S(=O)(=O)NCCNc2cc(-c3cn(-c4ccccc4)nc3-c3cccc(O)c3)ccn2)cc1` [Compound 3e, N-(2-((4-(3-(3-Hydroxyphenyl)-1-phenyl-1H-pyrazol-4-yl)pyridin-2-yl)amino)ethyl)-4-methylbenzenesulfonamide] yielded a melting point of 114 to 116 °C. In addition, in data set [1], the inhibition at 1 µM is 7.15 ± 0.04%, testing at 5 µM gave an inhibition of 12.4 ± 0.72%, the inhibition at 10 µM was 31.4 ± 0.33% and the IC50 stood at 16.1 ± 0.72 µM. In data set [2], this compound displayed an IC50 of 32.5 ± 0.75 µM.

The compound `O=S(=O)(NCCNc1cc(-c2cn(-c3ccccc3)nc2-c2cccc(O)c2)ccn1)c1cccc(F)c1` [Compound 3g, 3-Fluoro-N-(2-((4-(3-(3-hydroxyphenyl)-1-phenyl-1H-pyrazol-4-yl)pyridin-2-yl)amino)ethyl)benzenesulfonamide] showed a melting point of 146 to 148 °C. Besides, in data set [1], the inhibition at 1 µM is 16.2 ± 0.17%, the inhibition at 5 µM came to 19.1 ± 0.89%, the inhibition at 10 µM came out at 37.7 ± 0.85% and the IC50 turned out to be 21.42 ± 0.17 µM. The compound also showed an IC50 in data set [2] of 28.7 ± 0.74 µM.

As to `O=S(=O)(NCCNc1cc(-c2cn(-c3ccccc3)nc2-c2cccc(O)c2)ccn1)c1cccc2ccccc12` [Compound 3h, N-(2-((4-(3-(3-Hydroxyphenyl)-1-phenyl-1H-pyrazol-4-yl)pyridin-2-yl)amino)ethyl)naphthalene-1-sulfonamide], the melting point is 146 to 148 °C.

`O=S(=O)(NCCCNc1cc(-c2cn(-c3ccccc3)nc2-c2cccc(O)c2)ccn1)c1ccccc1` [Compound 4a, N-(3-((4-(3-(3-Hydroxyphenyl)-1-phenyl-1H-pyrazol-4-yl)pyridin-2-yl)amino)propyl)benzenesulfonamide] registered a melting point of 154 to 156 °C. Further, in data set [1], 1 µM produced 11.11 ± 0.1% inhibition, the inhibition at 5 µM was found to be 24.1 ± 0.56%, the inhibition at 10 µM is 59.2 ± 1.31% and the IC50 came to 8.86 ± 0.36 µM. In addition, 16.6 ± 0.91 µM corresponded to half-maximal inhibition in data set [2] (IC50).

The compound `O=S(=O)(NCCCNc1cc(-c2cn(-c3ccccc3)nc2-c2cccc(O)c2)ccn1)c1ccc(Cl)cc1` [Compound 4c, 4-Chloro-N-(3-((4-(3-(3-hydroxyphenyl)-1-phenyl-1H-pyrazol-4-yl)pyridin-2-yl)amino)propyl)benzenesulfonamide] displayed a melting point of 166 to 168 °C. Besides, in data set [1], the inhibition at 1 µM was 0.86 ± 0.09%, the inhibition at 5 µM stood at 22 ± 0.42%, 10 µM produced 47 ± 1.34% inhibition and the IC50 is 13.2 ± 0.52 µM. The compound also gave an IC50 in data set [2] of 18.8 ± 0.68 µM.
